Measurements reported in ChEMBL document CHEMBL1201862, “PubChem BioAssay data set” (2004).
Where a name gives a salt, the structure may show the parent alone. Activity calls are given as the source filed them.

Key:
Aminopeptidase N = biological target: T1, Aminopeptidase N (Plasmodium falciparum FcB1/Columbia, UniProt O96935); experiment: P. falciparum M1AAP inhibitors, biochemical, fluorogenic H-Leu-NHMec substrate, 1536-well (AID 1445); parameters: species or system Plasmodium falciparum 3D7, 3D7
T1 sequence (O96935 whole entry): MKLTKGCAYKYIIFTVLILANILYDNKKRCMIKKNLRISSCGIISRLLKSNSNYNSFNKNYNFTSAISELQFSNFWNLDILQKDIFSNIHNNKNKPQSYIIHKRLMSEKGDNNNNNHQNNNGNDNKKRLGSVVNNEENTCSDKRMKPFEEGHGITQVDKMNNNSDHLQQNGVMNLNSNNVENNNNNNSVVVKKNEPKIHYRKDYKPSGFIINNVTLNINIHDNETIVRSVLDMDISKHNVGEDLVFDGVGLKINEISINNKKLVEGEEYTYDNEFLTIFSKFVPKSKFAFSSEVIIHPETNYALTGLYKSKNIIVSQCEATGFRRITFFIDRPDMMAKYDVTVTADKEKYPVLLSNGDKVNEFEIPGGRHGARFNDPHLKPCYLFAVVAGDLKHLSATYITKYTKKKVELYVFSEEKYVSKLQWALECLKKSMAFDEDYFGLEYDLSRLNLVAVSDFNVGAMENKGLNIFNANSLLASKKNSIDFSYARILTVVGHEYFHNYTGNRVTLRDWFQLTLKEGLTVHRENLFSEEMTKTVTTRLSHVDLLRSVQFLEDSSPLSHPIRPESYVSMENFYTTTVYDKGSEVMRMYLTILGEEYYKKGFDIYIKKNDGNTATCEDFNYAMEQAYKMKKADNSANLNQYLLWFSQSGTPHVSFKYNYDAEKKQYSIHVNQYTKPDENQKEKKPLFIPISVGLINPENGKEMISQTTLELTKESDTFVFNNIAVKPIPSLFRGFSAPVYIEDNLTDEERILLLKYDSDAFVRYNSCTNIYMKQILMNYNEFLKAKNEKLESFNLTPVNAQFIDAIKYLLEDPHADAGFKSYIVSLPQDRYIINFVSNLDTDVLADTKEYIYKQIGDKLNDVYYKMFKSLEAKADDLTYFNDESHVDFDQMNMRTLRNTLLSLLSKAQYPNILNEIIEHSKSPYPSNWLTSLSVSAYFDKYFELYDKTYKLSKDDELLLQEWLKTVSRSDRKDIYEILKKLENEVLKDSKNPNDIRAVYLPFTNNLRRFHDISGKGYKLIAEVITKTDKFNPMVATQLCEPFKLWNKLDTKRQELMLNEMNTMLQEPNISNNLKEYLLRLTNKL

cells = format: functional
BJ [1] = experiment: cytotoxicity toward BJ-TERT fibroblasts, dose response, cell-based, RAS-independent, luminescence (AID 1933); format: functional; settings: Homo sapiens
BJ [2] = experiment: cells; format: functional, cell-based; settings: Homo sapiens
BJ [3] = experiment: cytotoxicity toward BJ-TERT-LT-ST fibroblasts, dose response, cell-based, RAS-independent, luminescence (AID 1935); format: functional; settings: Homo sapiens;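 further: BJ fibroblasts immortalized with TERT plus LT and ST oncogenes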
[4] = cytotoxicity toward DRD oncogenic fibroblasts, dose response, cell-based, non-viral oncogenic, luminescence (AID 1934); format: functional; settings: Homo sapiens
[5] = biological target: T2, Ubiquitin-conjugating enzyme E2 N (Homo sapiens, UniProt P61088); format: functional
T2 sequence (P61088 whole entry): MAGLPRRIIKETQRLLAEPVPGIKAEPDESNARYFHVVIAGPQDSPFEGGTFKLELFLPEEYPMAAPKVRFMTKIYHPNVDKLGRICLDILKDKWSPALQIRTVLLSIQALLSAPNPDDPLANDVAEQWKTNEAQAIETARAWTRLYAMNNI

INS1 = experiment: beta cell apoptosis inhibitors, cytokine rescue, dose response, luminescence, retest (AID 449756); format: functional, cell-based; settings: Rattus norvegicus;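 further: cell death triggered by IL-1 beta plus TNF-alpha plus IFN-gamma mixture; protective hits raise ATP signal compared with cytokine alone wells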
Fatty acid synthase [6] = biological target: T3, Fatty acid synthase (Homo sapiens, UniProt P49327); experiment: FAS thioesterase domain inhibitors, dose response, biochemical, endpoint fluorescence intensity, uHTS hits (AID 624327); format: functional;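 further: fluorescence from hydrolysis of an O-methyl fluorescein acyl ester substrate by the enzyme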
Fatty acid synthase [7] = biological target: T3, Fatty acid synthase; experiment: FAS thioesterase domain inhibitors, dose response, biochemical, kinetic fluorescence intensity (AID 624326); format: functional;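 further: rate of fluorescence rise from hydrolysis of a fluorogenic O-methyl fluorescein ester substrate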
P388/ADR = experiment: cells; format: functional; settings: Mus musculus
SN12K1 = experiment: cells; format: functional; settings: Homo sapiens
P388 = experiment: cells; format: functional; settings: Mus musculus
Bcl-2-related protein A1 = biological target: T4, Bcl-2-related protein A1 (Mus musculus, UniProt Q07440); format: functional;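 further: confirmatory dose–response counterscreen on Bfl-1, used to check hits from a UBC13 polyubiquitin inhibitor campaign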
T4 sequence (Q07440 whole entry): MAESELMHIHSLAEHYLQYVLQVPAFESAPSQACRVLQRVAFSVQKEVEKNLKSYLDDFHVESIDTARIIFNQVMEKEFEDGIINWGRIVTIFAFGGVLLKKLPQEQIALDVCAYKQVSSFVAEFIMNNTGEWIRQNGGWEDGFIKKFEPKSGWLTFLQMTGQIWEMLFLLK

[8] = biological target: T2, Ubiquitin-conjugating enzyme E2 N; format: functional; remark: listed apart in the source
[9] = biological target: T5, Corticotropin-releasing factor receptor 2/Corticotropin-releasing factor-binding protein (Homo sapiens, UniProt P24387+Q13324); experiment: activators of CRF receptor 2 with binding protein – uHTS hits, confirmation (AID 602473); format: functional; settings: read-out: EC50_Mean
T5 sequence (Q13324 whole entry): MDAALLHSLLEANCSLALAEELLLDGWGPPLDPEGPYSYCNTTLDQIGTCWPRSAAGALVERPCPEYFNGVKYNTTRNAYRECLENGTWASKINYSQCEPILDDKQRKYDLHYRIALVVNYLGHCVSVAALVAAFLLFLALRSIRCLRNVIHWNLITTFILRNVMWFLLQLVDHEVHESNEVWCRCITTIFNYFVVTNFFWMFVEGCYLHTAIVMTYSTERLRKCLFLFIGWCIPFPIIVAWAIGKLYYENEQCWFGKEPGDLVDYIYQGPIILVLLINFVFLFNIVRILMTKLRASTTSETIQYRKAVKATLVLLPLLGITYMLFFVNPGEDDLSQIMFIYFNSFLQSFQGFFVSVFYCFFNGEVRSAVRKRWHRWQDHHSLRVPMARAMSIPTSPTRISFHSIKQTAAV
T5 sequence (P24387 whole entry): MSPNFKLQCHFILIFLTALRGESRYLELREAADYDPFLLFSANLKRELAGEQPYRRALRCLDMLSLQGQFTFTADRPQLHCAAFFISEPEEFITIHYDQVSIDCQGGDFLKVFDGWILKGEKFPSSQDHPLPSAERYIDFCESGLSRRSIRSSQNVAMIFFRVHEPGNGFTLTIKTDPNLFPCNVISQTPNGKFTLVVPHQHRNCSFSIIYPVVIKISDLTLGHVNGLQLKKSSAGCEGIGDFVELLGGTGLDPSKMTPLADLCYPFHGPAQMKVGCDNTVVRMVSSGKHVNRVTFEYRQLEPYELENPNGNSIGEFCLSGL

[10] = inhibitors of HIV Env-driven cell fusion, dose response, cherry-pick (AID 652057); format: functional, cell-based
[11] = ZM109 Env clade C HIV-1 fusion inhibitors, dose response, HeLa effector, CEM target cells, luciferase, cherry-pick (AID 652058); format: functional, cell-based
[12] = inhibitors of clade B AD8 Env fusion, dose response, cell-based, cherry-pick (AID 652062); format: functional;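 further: luciferase signal from cell-cell fusion driven by HIV-1 clade B AD8 Env; potency is for inhibitors of fusion seen as a drop in luminescence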
[13] = biological target: T6, Calpain-2 catalytic subunit (Sus scrofa, UniProt P43367); experiment: pig calpain II inhibitor potency, dose response, biochemical, fluorogenic peptide substrate (AID 1420); format: functional
T6 sequence (P43367 whole entry): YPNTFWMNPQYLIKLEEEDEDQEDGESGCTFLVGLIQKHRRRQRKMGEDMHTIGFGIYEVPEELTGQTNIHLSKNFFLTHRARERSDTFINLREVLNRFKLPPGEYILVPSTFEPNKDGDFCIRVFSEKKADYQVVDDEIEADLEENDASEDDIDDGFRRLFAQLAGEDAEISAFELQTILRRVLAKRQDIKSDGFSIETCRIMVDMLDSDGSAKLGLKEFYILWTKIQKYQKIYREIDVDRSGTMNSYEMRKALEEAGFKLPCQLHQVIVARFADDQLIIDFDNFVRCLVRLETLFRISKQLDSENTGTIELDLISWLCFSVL

Large T antigen = Large T antigen (Simian virus 40, UniProt P03070); format: functional, Betapolyomavirus macacae;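 further: Confirmatory-stage PubChem screen for compounds that inhibit SV40 T antigen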
Large T antigen, sequence (P03070 whole entry): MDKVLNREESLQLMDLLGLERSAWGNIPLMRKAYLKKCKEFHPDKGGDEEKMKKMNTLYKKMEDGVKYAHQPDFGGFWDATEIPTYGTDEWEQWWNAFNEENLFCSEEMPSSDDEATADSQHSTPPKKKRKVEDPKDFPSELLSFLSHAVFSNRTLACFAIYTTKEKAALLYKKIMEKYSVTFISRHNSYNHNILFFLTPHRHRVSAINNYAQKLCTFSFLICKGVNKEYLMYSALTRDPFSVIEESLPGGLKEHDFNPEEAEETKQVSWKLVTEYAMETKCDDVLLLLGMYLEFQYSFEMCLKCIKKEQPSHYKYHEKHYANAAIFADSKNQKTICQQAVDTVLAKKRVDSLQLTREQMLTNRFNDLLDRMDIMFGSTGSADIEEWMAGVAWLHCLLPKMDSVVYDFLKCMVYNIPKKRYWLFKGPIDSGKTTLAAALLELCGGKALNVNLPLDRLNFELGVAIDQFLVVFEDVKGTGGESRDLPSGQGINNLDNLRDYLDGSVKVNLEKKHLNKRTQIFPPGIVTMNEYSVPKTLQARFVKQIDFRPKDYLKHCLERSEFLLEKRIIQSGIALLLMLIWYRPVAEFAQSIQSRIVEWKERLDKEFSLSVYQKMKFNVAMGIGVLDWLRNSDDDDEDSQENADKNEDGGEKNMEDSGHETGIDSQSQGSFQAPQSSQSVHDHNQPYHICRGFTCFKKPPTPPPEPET

T3 sequence (P49327 whole entry, the tested form may be a part): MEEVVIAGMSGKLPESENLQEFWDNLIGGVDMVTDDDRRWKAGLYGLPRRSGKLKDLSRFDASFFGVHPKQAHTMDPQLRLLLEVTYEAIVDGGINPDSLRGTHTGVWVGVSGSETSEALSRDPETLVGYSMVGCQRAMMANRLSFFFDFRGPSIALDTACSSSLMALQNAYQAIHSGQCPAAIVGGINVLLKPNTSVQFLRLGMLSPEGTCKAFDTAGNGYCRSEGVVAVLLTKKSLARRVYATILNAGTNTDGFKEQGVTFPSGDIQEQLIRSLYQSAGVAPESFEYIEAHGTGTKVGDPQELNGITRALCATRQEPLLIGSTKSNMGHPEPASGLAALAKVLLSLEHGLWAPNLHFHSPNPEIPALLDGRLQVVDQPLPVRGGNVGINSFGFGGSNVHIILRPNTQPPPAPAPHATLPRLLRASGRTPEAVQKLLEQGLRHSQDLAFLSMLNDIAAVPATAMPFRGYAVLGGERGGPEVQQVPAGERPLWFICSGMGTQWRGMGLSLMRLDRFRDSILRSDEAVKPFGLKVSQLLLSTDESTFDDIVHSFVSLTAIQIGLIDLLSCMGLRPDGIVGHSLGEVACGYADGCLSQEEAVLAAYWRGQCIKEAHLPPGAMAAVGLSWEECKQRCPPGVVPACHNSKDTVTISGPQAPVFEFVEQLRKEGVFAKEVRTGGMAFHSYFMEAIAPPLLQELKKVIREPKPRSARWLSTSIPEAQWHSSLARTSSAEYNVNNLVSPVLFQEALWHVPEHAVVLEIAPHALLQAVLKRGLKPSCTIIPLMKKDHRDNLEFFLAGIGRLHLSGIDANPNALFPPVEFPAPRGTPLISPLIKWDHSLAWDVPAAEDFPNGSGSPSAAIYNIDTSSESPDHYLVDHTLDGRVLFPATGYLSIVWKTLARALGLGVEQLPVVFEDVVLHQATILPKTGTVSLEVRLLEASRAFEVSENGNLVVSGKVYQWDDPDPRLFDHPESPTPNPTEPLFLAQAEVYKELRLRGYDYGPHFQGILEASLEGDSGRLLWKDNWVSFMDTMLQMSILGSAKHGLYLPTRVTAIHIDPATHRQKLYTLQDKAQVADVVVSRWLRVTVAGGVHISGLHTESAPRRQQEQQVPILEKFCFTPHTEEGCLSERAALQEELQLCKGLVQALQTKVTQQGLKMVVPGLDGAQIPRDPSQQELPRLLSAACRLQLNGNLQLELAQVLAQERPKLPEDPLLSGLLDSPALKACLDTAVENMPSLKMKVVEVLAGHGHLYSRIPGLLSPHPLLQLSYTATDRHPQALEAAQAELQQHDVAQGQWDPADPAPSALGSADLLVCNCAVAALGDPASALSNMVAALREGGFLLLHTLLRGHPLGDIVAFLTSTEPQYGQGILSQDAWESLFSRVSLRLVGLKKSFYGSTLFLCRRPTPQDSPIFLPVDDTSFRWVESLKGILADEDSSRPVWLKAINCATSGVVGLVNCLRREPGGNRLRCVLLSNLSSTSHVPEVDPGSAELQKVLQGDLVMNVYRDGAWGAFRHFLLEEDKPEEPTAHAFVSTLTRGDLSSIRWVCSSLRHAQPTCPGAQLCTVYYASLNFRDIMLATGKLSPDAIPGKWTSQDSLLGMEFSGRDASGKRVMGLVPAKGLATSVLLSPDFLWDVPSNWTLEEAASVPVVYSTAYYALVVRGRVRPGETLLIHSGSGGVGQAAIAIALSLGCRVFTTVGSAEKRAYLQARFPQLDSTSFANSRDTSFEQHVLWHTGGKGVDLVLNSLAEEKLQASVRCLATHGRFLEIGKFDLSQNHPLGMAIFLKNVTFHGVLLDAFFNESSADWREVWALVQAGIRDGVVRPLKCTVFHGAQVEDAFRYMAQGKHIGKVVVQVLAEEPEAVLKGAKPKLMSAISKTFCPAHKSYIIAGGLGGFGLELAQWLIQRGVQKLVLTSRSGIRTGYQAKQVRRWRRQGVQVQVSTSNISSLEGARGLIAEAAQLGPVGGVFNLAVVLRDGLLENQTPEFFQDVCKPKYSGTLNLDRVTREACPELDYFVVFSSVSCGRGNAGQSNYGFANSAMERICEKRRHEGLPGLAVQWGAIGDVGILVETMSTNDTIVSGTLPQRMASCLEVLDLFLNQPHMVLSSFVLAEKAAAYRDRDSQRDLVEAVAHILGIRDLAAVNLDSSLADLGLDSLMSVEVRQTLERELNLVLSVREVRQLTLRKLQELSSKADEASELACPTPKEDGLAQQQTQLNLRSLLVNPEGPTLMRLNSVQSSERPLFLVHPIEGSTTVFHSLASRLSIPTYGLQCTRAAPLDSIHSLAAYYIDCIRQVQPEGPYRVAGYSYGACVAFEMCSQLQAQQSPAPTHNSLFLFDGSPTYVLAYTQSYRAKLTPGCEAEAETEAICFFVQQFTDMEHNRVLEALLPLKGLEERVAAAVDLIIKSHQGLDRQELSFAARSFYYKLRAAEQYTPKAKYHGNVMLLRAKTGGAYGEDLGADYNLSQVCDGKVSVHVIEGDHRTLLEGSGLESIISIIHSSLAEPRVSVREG

Compound: O=C1OC(/C(=C\Nc2cc(Cl)ccc2O)[N+](=O)[O-])c2ccccc21 (configuration not stated)
- IC50 (Aminopeptidase N): 48.8 µM (active)
- IC50 (cells): 11.7 µM (active)

Compound: CN(C)CCCn1cnc2c(c1=N)C(c1ccccc1)c1ccc3ccccc3c1O2 (configuration not stated)
- EC50 (BJ [1]): 5.45 µM (inconclusive)
- EC50 (BJ [2]): 8.21 µM (active)
- EC50 (BJ [3]): 4.25 µM (active)
- EC50 [4]: 5.25 µM (active)
- IC50 [5]: > 20 µM (inactive)
- AC50 (INS1): 6.49 µM (active)

Compound: CN1CCN(c2ccc([N+](=O)[O-])cc2/C=N/NC(=O)c2ccc(F)cc2)CC1
- IC50 (Fatty acid synthase [6]): 11.2 µM (active)
- IC50 (Fatty acid synthase [7]): 16 µM (active)

Compound: CCCCS(=N)(=O)CC[C@H](N)C(=O)O (some centres not stated) [BUTHIONINE SULFOXIME]
- GI50 (P388/ADR): > 5000 µM (inactive)
- GI50 (SN12K1): 3720 µM (inactive)
- GI50 (P388): 2250 µM (inactive)

Compound: CC(C)(C)c1ccc(C(=O)NCCC(=O)Nc2cc(Cl)ccc2N2CCOCC2)cc1
- IC50 (Fatty acid synthase [6]): 9.59 µM (active)
- IC50 (Fatty acid synthase [7]): 4.54 µM (active)

Compound: N[C@@H](Cc1ccc(N(CCCl)CCCl)cc1)C(=O)O [MELPHALAN HYDROCHLORIDE]
- GI50 (P388/ADR): 5.71 µM (inactive)
- GI50 (SN12K1): 26.5 µM (inactive)
- GI50 (P388): 2.39 µM (inactive)

Compound: Cc1nc(NS(=O)(=O)c2ccccc2)sc1C(=O)N/N=C/c1ccccc1
- IC50 (Aminopeptidase N): 50.1 µM (active)

Compound: O=C(CSc1nc2ccsc2c(=O)n1Cc1ccccc1)NCc1ccco1
- IC50 (Bcl-2-related protein A1): > 20 µM (inactive)
- IC50 [5]: 18.1 µM (active)
- IC50 [8]: > 20 µM (inactive)

Compound: CCCNC(=O)/C(=C/c1cn(S(=O)(=O)N(C)C)c2ccccc12)NC(=O)c1ccc(OC)cc1
- EC50 [9]: 4.01 µM (active)
- IC50 (Fatty acid synthase [6]): 4.86 µM (active)
- IC50 (Fatty acid synthase [7]): 6.75 µM (active)

Compound: Cc1ccc(C2COc3cc(O)c(O)cc3C2)cc1 (configuration not stated)
- GI50 (P388/ADR): 1.79 µM (inactive)
- GI50 (SN12K1): 13.2 µM (inactive)
- GI50 (P388): 1.75 µM (inactive)

Compound: CC(C)NC(=O)OCc1c(CO)c2c(n1C)-c1ccccc1CC2
- GI50 (P388/ADR): 6.9 µM (inactive)
- GI50 (SN12K1): 18.1 µM (inactive)
- GI50 (P388): 7.59 µM (inactive)

Compound: Cc1ccc(S(=O)(=O)N(C)C[C@@H]2Oc3ncc(/C=C/c4ccccc4)cc3C(=O)N([C@H](C)CO)C[C@@H]2C)cc1
- AC50 [10]: 577 nM (active)
- AC50 [11]: 2.57 µM (active)
- AC50 [12]: 3.55 µM (active)

Compound: CCCCCCCCCCCCCCCCSCC(COC)COP(=O)([O-])OCC[N+](C)(C)C (configuration not stated) [ILMOFOSINE]
- GI50 (P388/ADR): 4.01 µM (inactive)
- GI50 (SN12K1): 11.7 µM (inactive)
- GI50 (P388): 2.36 µM (inactive)

Compound: O=NN(CCCl)C(=O)N[C@H]1CC[C@@H](O)CC1
- GI50 (P388/ADR): 3.41 µM (inactive)
- GI50 (SN12K1): 28.2 µM (inactive)
- GI50 (P388): 3.76 µM (inactive)

Compound: O=C(C[C@H]1C=C[C@@H](NC(=O)Nc2ccccc2F)[C@@H](CO)O1)NCc1ccc(Cl)cc1
- AC50 [10]: 3070 nM (active)
- AC50 [12]: 9.13 µM (active)

Compound: N#Cc1cc2sc3nnc(-c4ccncc4)n3c2cc1C#N
- IC50 (Fatty acid synthase [6]): 3.82 µM (active)
- IC50 (Fatty acid synthase [7]): 4.69 µM (active)

Compound: O=C1CCC(=O)N1c1nc2n(n1)C(c1ccccc1)C=C(c1ccc(Br)cc1)N2 (configuration not stated)
- IC50 (Aminopeptidase N): 69.7 µM (active)

Compound: CCN1CCCC(NCc2c3ccccc3c(CNC3CCCN(CC)C3)c3ccccc23)C1 (configuration not stated)
- GI50 (P388/ADR): 15.7 µM (inactive)
- GI50 (SN12K1): 8.32 µM (inactive)
- GI50 (P388): 2.64 µM (inactive)

Compound: COc1cc(/C=C/c2ccc(OC)c(OC)c2)oc(=O)c1
- GI50 (P388/ADR): > 183 µM (inactive)
- GI50 (SN12K1): > 183 µM (inactive)
- GI50 (P388): 96.4 µM (inactive)

Compound: O=C(N1CCN(c2ccccn2)CC1)N1c2ccccc2Sc2ccccc21
- EC50 (BJ [1]): 0.62 µM (active)
- EC50 (BJ [2]): 53.6 µM (inconclusive)
- IC50 [13]: 4.55 µM (not active)
- EC50 (BJ [3]): 0.979 µM (inconclusive)
- EC50 [4]: 0.523 µM (active)

Compound: CCN(CC)S(=O)(=O)c1ccc(C(=O)Oc2coc(CSc3nc(C)cc(C)n3)cc2=O)cc1
- IC50 (Large T antigen): 40.4 µM (active)
